The subject of one assay is RL. Briefly: cells. It is filed as functional, cell-based, Homo sapiens. Particulars: Homo sapiens, RL.
The test system of another assay is CMK. Briefly: cells. As to conditions: Homo sapiens, CMK. The assay is classed as functional, cell-based, Homo sapiens.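 Note: growth inhibition of CMK cells, read out as cell viability.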
The subject of the next assay is LC-1F. In words: cells. The assay is classed as functional, cell-based, Homo sapiens. As to conditions: Homo sapiens, LC-1F.
Another assay has as its system CP67-MEL. Briefly: SANGER: Inhibition of human CP67-MEL cell growth in a cell viability assay. It is filed as functional, cell-based.
The subject of the next assay is GDM-1. In words: cells. It is filed as functional, cell-based, Homo sapiens. As to conditions: Homo sapiens, GDM-1.
The test system of a further assay is MRK-nu-1. Briefly: cells. Particulars: Homo sapiens, MRK-nu-1. It is filed as functional, cell-based, Homo sapiens.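 Note: cell viability assay measuring growth suppression of human MRK-nu-1 cells.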
The test system of another assay is ECC4. Briefly: cells. The assay is classed as functional, cell-based, Homo sapiens. Particulars: Homo sapiens, ECC4.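 Note: growth inhibition of ECC4 cells, read out with a cell viability assay.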
The test system of a further assay is SKM-1. In words: SANGER: Inhibition of human SKM-1 cell growth in a cell viability assay. It is filed as functional, cell-based. Particulars: Homo sapiens, SKM-1.
The next assay relates to LOUCY. In words: cells. Particulars: Homo sapiens, LOUCY. The assay is classed as functional, cell-based, Homo sapiens.
For the next assay, the system named is KP-N-RT-BM-1. Briefly: SANGER: Inhibition of human KP-N-RT-BM-1 cell growth in a cell viability assay. The assay is classed as functional, cell-based.
The test system of a further assay is EW-24. In words: cells. As to conditions: Homo sapiens, EW-24. The assay is classed as functional, cell-based, Homo sapiens.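 Note: human EW-24 cancer cell line, growth inhibition read out via a cell viability assay.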
The test system of the next assay is NCI-H1963. In words: cells. The assay is classed as functional, cell-based, Homo sapiens. Particulars: Homo sapiens, NCI-H1963.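 Note: cell growth inhibition of the human line, determined with a cell viability assay.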
Another assay concerns UACC-812. Briefly: cells. It is filed as functional, cell-based. As to conditions: Homo sapiens.
A further assay concerns HMV-2 cell line. Briefly: cells. It is filed as functional, cell-based. As to conditions: Homo sapiens.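 Note: growth inhibition of HMV-II cells, read out with a cell viability assay.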
For another assay, the system named is BEN. In words: cells. The assay is classed as functional, cell-based. As to conditions: Homo sapiens.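 Note: growth inhibition of the BEN cell line, read out with a cell viability assay.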
The subject of a further assay is LCLC-97TM1. Briefly: cells. The assay is classed as functional, cell-based. As to conditions: Homo sapiens.
The subject of a further assay is MCF7. Briefly: cells. The assay is classed as functional, cell-based. As to conditions: Homo sapiens.
The subject of a further assay is D-392MG. In words: cells. It is filed as functional, cell-based. Particulars: Homo sapiens.
The test system of the next assay is SNU-387. Briefly: cells. It is filed as functional, cell-based. As to conditions: Homo sapiens.
The test system of a further assay is NCI-H1792. Briefly: cells. As to conditions: Homo sapiens. It is filed as functional, cell-based.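 Note: growth inhibition of human NCI-H1792 cells, read out as cell viability.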
In the next assay the test system is C-4-II. Briefly: SANGER: Inhibition of human C-4-II cell growth in a cell viability assay. It is filed as functional, cell-based.
The subject of another assay is NCI-H1693. In words: cells. It is filed as functional, cell-based. As to conditions: Homo sapiens.
Another assay has as its system NBsusSR. In words: cells. It is filed as functional, cell-based. Particulars: Homo sapiens.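 Note: growth inhibition of the human cell line, read out with a cell viability assay.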
A further assay relates to ECC10. Briefly: cells. The assay is classed as functional, cell-based. Particulars: Homo sapiens.
The subject of the next assay is TGBC11TKB. In words: cells. The assay is classed as functional, cell-based. Particulars: Homo sapiens.
In a further assay the test system is NCI-H2291. Briefly: cells. The assay is classed as functional, cell-based. As to conditions: Homo sapiens.
The next assay has as its system NCI-H1666. In words: cells. The assay is classed as functional, cell-based. As to conditions: Homo sapiens.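 Note: growth inhibition of the cell line, read out with a cell viability assay.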
The next assay has as its system LU-135. In words: cells. It is filed as functional, cell-based. As to conditions: Homo sapiens.
The next assay deals with SW-620. In words: cells. It is filed as functional, cell-based. Particulars: Homo sapiens.
Another assay relates to RERF-LC-MS. In words: cells. Particulars: Homo sapiens. The assay is classed as functional, cell-based.
A further assay concerns COR-L23. Briefly: cells. Particulars: Homo sapiens. The assay is classed as functional, cell-based.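 Note: cell viability assay measuring how strongly compounds suppress growth of COR-L23 cells.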
In the next assay the test system is EFO-21. Briefly: cells. It is filed as functional, cell-based. As to conditions: Homo sapiens.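 Note: growth inhibition of EFO-21 cells measured with a viability assay.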
A further assay has as its system SW837. Briefly: cells. The assay is classed as functional, cell-based. As to conditions: Homo sapiens.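 Note: growth inhibition of SW837 cells, determined with a cell viability assay.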
The next assay deals with COLO-741. Briefly: cells. It is filed as functional, cell-based. As to conditions: Homo sapiens.
Another assay has as its system LoVo. In words: cells. It is filed as functional, cell-based. As to conditions: Homo sapiens.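 Note: growth inhibition of human LoVo cells, read out with a cell viability assay.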
The next assay has as its system PC-14. In words: cells. It is filed as functional, cell-based. Particulars: Homo sapiens.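 Note: cell viability assay measuring inhibition of PC-14 cell growth.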
Another assay concerns SK-MEL3. In words: cells. It is filed as functional, cell-based, SK-MEL-3. As to conditions: Homo sapiens.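 Note: growth inhibition of human SK-MEL-3 cells, read out with a cell viability assay.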
The test system of a further assay is UACC-893. Briefly: cells. It is filed as functional, cell-based. As to conditions: Homo sapiens.
Another assay deals with NCI-H727. Briefly: cells. The assay is classed as functional, cell-based. Particulars: Homo sapiens.
Another assay concerns TCC-SUP. In words: cells. The assay is classed as functional, cell-based. Particulars: Homo sapiens.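 Note: growth inhibition of TCC-SUP cells, read out with a cell viability assay.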
The test system of a further assay is Detroit 562. Briefly: cells. Particulars: Homo sapiens. The assay is classed as functional, cell-based.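 Note: growth inhibition of human Detroit 562 cells, read out by a cell viability assay.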
Another assay deals with CHP-212. Briefly: cells. It is filed as functional, cell-based. As to conditions: Homo sapiens.
A further assay concerns D-542MG. In words: cells. It is filed as functional, cell-based. Particulars: Homo sapiens.
In another assay the test system is NCI-H358. Briefly: cells. The assay is classed as functional, cell-based. Particulars: Homo sapiens.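 Note: growth inhibition of NCI-H358 human cells, read out with a cell viability assay.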
The subject of the next assay is AU565. In words: cells. The assay is classed as functional, cell-based. As to conditions: Homo sapiens.
The test system of the next assay is SCC-9. Briefly: cells. The assay is classed as functional, cell-based. Particulars: Homo sapiens.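 Note: Read-out is a cell viability assay, with values giving inhibition of cell growth.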
A further assay has as its system OVCAR-3. In words: cells. The assay is classed as functional, cell-based. Particulars: Homo sapiens.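 Note: growth inhibition of human OVCAR-3 cells, determined by a cell viability assay.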
A further assay concerns OAW-42. Briefly: cells. The assay is classed as functional, cell-based. As to conditions: Homo sapiens.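 Note: growth inhibition of OAW-42 cells, read out with a cell viability assay.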
The test system of the next assay is CFPAC-1. Briefly: cells. It is filed as functional, cell-based. As to conditions: Homo sapiens.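 Note: cell viability readout used to gauge suppression of CFPAC-1 cell proliferation.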
The subject of a further assay is NB12. In words: cells. The assay is classed as functional, cell-based. Particulars: Homo sapiens.
The subject of the next assay is RH-18. Briefly: cells. Particulars: Homo sapiens, Rh18. It is filed as functional, cell-based.
The test system of another assay is BFTC-905. Briefly: cells. It is filed as functional, cell-based. Particulars: Homo sapiens.

Description for AU565: SANGER: Inhibition of human AU565 cell growth in a cell viability assay.
Description for BEN: SANGER: Inhibition of human BEN cell growth in a cell viability assay.
Description for BFTC-905: SANGER: Inhibition of human BFTC-905 cell growth in a cell viability assay.
Description for CFPAC-1: SANGER: Inhibition of human CFPAC-1 cell growth in a cell viability assay.
Description for CHP-212: SANGER: Inhibition of human CHP-212 cell growth in a cell viability assay.
Description for CMK: SANGER: Inhibition of human CMK cell growth in a cell viability assay.
Description for COLO-741: SANGER: Inhibition of human COLO-741 cell growth in a cell viability assay.
Description for COR-L23: SANGER: Inhibition of human COR-L23 cell growth in a cell viability assay.
Description for D-542MG: SANGER: Inhibition of human D-542MG cell growth in a cell viability assay.
Description for Detroit 562: SANGER: Inhibition of human Detroit562 cell growth in a cell viability assay.
Description for ECC10: SANGER: Inhibition of human ECC10 cell growth in a cell viability assay.
Description for ECC4: SANGER: Inhibition of human ECC4 cell growth in a cell viability assay.
Description for EFO-21: SANGER: Inhibition of human EFO-21 cell growth in a cell viability assay.
Description for EW-24: SANGER: Inhibition of human EW-24 cell growth in a cell viability assay.
Description for GDM-1: SANGER: Inhibition of human GDM-1 cell growth in a cell viability assay.
Description for HMV-2 cell line: SANGER: Inhibition of human HMV-II cell growth in a cell viability assay.
Description for LC-1F: SANGER: Inhibition of human LC-1F cell growth in a cell viability assay.
Description for LCLC-97TM1: SANGER: Inhibition of human LCLC-97TM1 cell growth in a cell viability assay.
Description for LOUCY: SANGER: Inhibition of human LOUCY cell growth in a cell viability assay.
Description for LU-135: SANGER: Inhibition of human LU-135 cell growth in a cell viability assay.
Description for LoVo: SANGER: Inhibition of human LoVo cell growth in a cell viability assay.
Description for MCF7: SANGER: Inhibition of human MCF7 cell growth in a cell viability assay.
Description for MRK-nu-1: SANGER: Inhibition of human MRK-nu-1 cell growth in a cell viability assay.
Description for NB12: SANGER: Inhibition of human NB12 cell growth in a cell viability assay.
Description for NBsusSR: SANGER: Inhibition of human NBsusSR cell growth in a cell viability assay.
Description for NCI-H1666: SANGER: Inhibition of human NCI-H1666 cell growth in a cell viability assay.
Description for NCI-H1693: SANGER: Inhibition of human NCI-H1693 cell growth in a cell viability assay.
Description for NCI-H1792: SANGER: Inhibition of human NCI-H1792 cell growth in a cell viability assay.
Description for NCI-H1963: SANGER: Inhibition of human NCI-H1963 cell growth in a cell viability assay.
Description for NCI-H2291: SANGER: Inhibition of human NCI-H2291 cell growth in a cell viability assay.
Description for NCI-H358: SANGER: Inhibition of human NCI-H358 cell growth in a cell viability assay.
Description for NCI-H727: SANGER: Inhibition of human NCI-H727 cell growth in a cell viability assay.
Description for OAW-42: SANGER: Inhibition of human OAW-42 cell growth in a cell viability assay.
Description for OVCAR-3: SANGER: Inhibition of human OVCAR-3 cell growth in a cell viability assay.
Description for PC-14: SANGER: Inhibition of human PC-14 cell growth in a cell viability assay.
Description for RERF-LC-MS: SANGER: Inhibition of human RERF-LC-MS cell growth in a cell viability assay.
Description for RH-18: SANGER: Inhibition of human RH-18 cell growth in a cell viability assay.
Description for RL: SANGER: Inhibition of human RL cell growth in a cell viability assay.
Description for SCC-9: SANGER: Inhibition of human SCC-9 cell growth in a cell viability assay.
Description for SK-MEL3: SANGER: Inhibition of human SK-MEL-3 cell growth in a cell viability assay.
Description for SNU-387: SANGER: Inhibition of human SNU-387 cell growth in a cell viability assay.
Description for SW-620: SANGER: Inhibition of human SW620 cell growth in a cell viability assay.
Description for SW837: SANGER: Inhibition of human SW837 cell growth in a cell viability assay.
Description for TCC-SUP: SANGER: Inhibition of human TCCSUP cell growth in a cell viability assay.
Description for TGBC11TKB: SANGER: Inhibition of human TGBC11TKB cell growth in a cell viability assay.
Description for UACC-812: SANGER: Inhibition of human UACC-812 cell growth in a cell viability assay.
Description for UACC-893: SANGER: Inhibition of human UACC-893 cell growth in a cell viability assay.

In the case of `COc1ccc(N(C(=O)Oc2c(C)cccc2C)c2ccnc(Nc3ccc(N4CCN(C)CC4)cc3)n2)c(OC)c1`, the IC50 was above 5.12 µM in the assay on RL; above 5.12 µM in the assay on CMK; above 5.12 µM in the assay on LC-1F; above 5.12 µM in the assay on CP67-MEL; above 5.12 µM in the assay on GDM-1 (read-out: IC50); 4.72 µM in the assay on MRK-nu-1. Besides, the IC50 in the assay with ECC4, in the assay on SKM-1, in the assay on LOUCY, in the assay with KP-N-RT-BM-1, with EW-24 and in the assay with NCI-H1963 was above 5.12 µM throughout.
Regarding `C[C@@H](Oc1cc(-c2cnn(C3CCNCC3)c2)cnc1N)c1c(Cl)ccc(F)c1Cl` [CRIZOTINIB], the IC50 is above 2 µM with RL; 1.96 µM in the assay on CMK; above 2 µM in the assay with LC-1F; above 2 µM in the assay on CP67-MEL; above 2 µM in the assay with GDM-1 (read-out: IC50); above 2 µM in the assay on MRK-nu-1. The IC50 in the assay with UACC-812, in the assay with ECC4, with SKM-1, in the assay on LOUCY, in the assay with KP-N-RT-BM-1 and with EW-24 was above 2 µM in each case. In addition, the IC50 in the assay on NCI-H1963 is above 2 µM.
As to `CO[C@@H]1[C@H](N(C)C(=O)c2ccccc2)C[C@H]2O[C@]1(C)n1c3ccccc3c3c4c(c5c6ccccc6n2c5c31)C(=O)NC4` [MIDOSTAURIN], the IC50 in the assay with HMV-2 cell line was above 0.512 µM; with BEN, above 0.512 µM; in the assay on LCLC-97TM1, above 0.512 µM; with MCF7, 0.333 µM; with D-392MG, 0.331 µM; in the assay with SNU-387, 0.139 µM. For the same compound, the figures for the IC50 in the assay with NCI-H1792 and in the assay on C-4-II were 0.331 µM and 0.349 µM, respectively.
`NC(=O)c1cccc(-c2cc(Nc3ccc(OC(F)(F)F)cc3)ncn2)c1`: the IC50 with RL, in the assay with CMK, with LC-1F, with CP67-MEL, with GDM-1 (read-out: IC50) and in the assay with MRK-nu-1 was above 1.28 µM each time. Further, the IC50 with ECC4, with SKM-1, with LOUCY, in the assay on KP-N-RT-BM-1, in the assay with EW-24 and in the assay with NCI-H1963 was above 1.28 µM in each case.
Consider `Cc1ccc(NC(=O)c2ccc(CN3CCN(C)CC3)cc2)cc1Nc1nccc(-c2cccnc2)n1` [IMATINIB], for which the IC50 with RL, in the assay with CMK, with LC-1F, in the assay on CP67-MEL, in the assay on GDM-1 and with MRK-nu-1 was above 2 µM throughout. Further, the IC50 in the assay with UACC-812, in the assay on ECC4, with SKM-1, with LOUCY, in the assay on KP-N-RT-BM-1 and in the assay with EW-24 was above 2 µM throughout. Further, the IC50 in the assay on NCI-H1963 was above 2 µM.
`Cc1cc(N2CCOCC2)cc2[nH]c(-c3c(NC[C@@H](O)c4cccc(Cl)c4)cc[nH]c3=O)nc12`: the IC50 in the assay with RL was above 5.12 µM; in the assay with CMK, 0.745 µM; with LC-1F, above 5.12 µM; in the assay with CP67-MEL it was 0.898 µM; with GDM-1 (read-out: IC50), above 5.12 µM; in the assay on MRK-nu-1, above 5.12 µM. Besides, the IC50 is above 5.12 µM in the assay with ECC4; above 5.12 µM in the assay with SKM-1; above 5.12 µM with LOUCY; 1.44 µM in the assay with KP-N-RT-BM-1; above 5.12 µM with EW-24; above 5.12 µM in the assay on NCI-H1963.
Take `C=CC(=O)N1CCCC(Nc2nc(Nc3ccc(N(C)C(=O)CC)cc3)nc3[nH]cnc23)C1` (centres undefined): the IC50 in the assay on RL, in the assay on CMK, in the assay with LC-1F, in the assay with CP67-MEL, in the assay with GDM-1 (read-out: IC50) and in the assay with MRK-nu-1 was above 10.2 µM throughout. The half-maximal inhibitory concentration (IC50) is above 10.2 µM in the assay on ECC4; above 10.2 µM in the assay with SKM-1; above 10.2 µM with LOUCY; above 10.2 µM in the assay on KP-N-RT-BM-1; 4.59 µM with EW-24; above 10.2 µM in the assay with NCI-H1963.
For `NC(=O)c1ccc(N(C(N)=O)c2c(F)cccc2F)nc1-c1ccc(F)cc1F` [VX-702], the IC50 in the assay on NCI-H1693 is above 2 µM; in the assay on HMV-2 cell line, 1.77 µM; in the assay on BEN, above 2 µM; in the assay with NBsusSR, above 2 µM; in the assay with ECC10, 0.654 µM; with TGBC11TKB it was above 2 µM. For the same compound, the IC50 with NCI-H2291, with LCLC-97TM1, in the assay on NCI-H1666, in the assay with LU-135, in the assay with SW-620 and in the assay on RERF-LC-MS was above 2 µM each time. The IC50 in the assay on COR-L23, with EFO-21, in the assay with SW837, in the assay with COLO-741, in the assay on MCF7 and in the assay on LoVo was above 2 µM in each case. Besides, the IC50 in the assay on PC-14, in the assay on D-392MG, in the assay with SNU-387, with SK-MEL3, in the assay on UACC-893 and in the assay on NCI-H1792 was above 2 µM each time. Also, the IC50 in the assay with NCI-H727, in the assay on TCC-SUP, in the assay on Detroit 562, with CHP-212, with EW-24 and in the assay on D-542MG was above 2 µM throughout. In addition, the IC50 in the assay with NCI-H358, with AU565, in the assay with SCC-9, with OVCAR-3, in the assay on OAW-42 and in the assay with CFPAC-1 was above 2 µM each time. Besides, the IC50 with NB12, with RH-18 and with BFTC-905 was above 2 µM each time.
For `COc1cc(N2CCC(N3CCN(C)CC3)CC2)ccc1Nc1ncc(Cl)c(Nc2ccccc2S(=O)(=O)C(C)C)n1` [TAE-684], the IC50 in the assay on RL is above 2 µM; in the assay on CMK, 0.255 µM; with LC-1F, above 2 µM; in the assay with CP67-MEL, above 2 µM; in the assay on GDM-1 (read-out: IC50), 0.471 µM; with MRK-nu-1 it was above 2 µM. Besides, the IC50 was above 2 µM with UACC-812; above 2 µM in the assay with ECC4; above 2 µM in the assay on SKM-1; above 2 µM with LOUCY; 0.331 µM with KP-N-RT-BM-1; above 2 µM in the assay with EW-24. Moreover, in the assay with NCI-H1963, the IC50 was above 2 µM.

One may read the IC50 as the concentration at which inhibition is half-maximal.
